The text below walks through data of US8372872B2, “Methods for concomitant treatment of theophylline and febuxostat” (Takeda Pharmaceuticals U.S.A., Inc., priority 2010, dated 2013).

The nature of one data set: clinical. The settings on record: both, human, in vivo, po.
For data set [1] the following is noted: adults; cited from earlier work.
The conditions of data set [2]: patients co-administered allopurinol and theophylline; cited from earlier work.
Setting [3] is: febuxostat vs placebo regimen, in words.

As to `Cc1nc(-c2ccc(OCC(C)C)c(C#N)c2)sc1C(=O)O` [Febuxostat], the “maximum observed theophylline concentration (Cmax) and exposure to theophylline (AUC), febuxostat vs placebo” value (in words) is reported as “comparable”.

As usually defined, the Tmax is the time at which the peak concentration occurs. What is called Vd/F is the apparent distribution volume after extravascular dosing. One may read the half-life as the time needed for the level to fall by half in the phase considered. A lower half-life goes with fast loss. Turning to `Cn1c(=O)c2[nH]cnc2n(C)c1=O` [Theophylline, 1,3-dimethyl-7H-purine-2,6-dione], the “point estimates for theophylline Cmax, AUC(0-tlqc) and AUC(0-inf)” value (both, human, in vivo) is listed as ~100%. Under setting [3], the “estimated mean T1/2, CL/F and Vz/F of theophylline, compared between regimens” value is “generally similar”; the “mean AUC(0-inf) of theophylline, compared between regimens” value is given as “comparable”. In the data set “clinical”, the Tmax is 7 to 9 h, the Vd/F was 58.2 L and the half-life is 9.69 h. For the same compound, the biological half-life result in data set [1] is reported as “about 6 hours”.

For `Oc1ncnc2[nH]ncc12` [allopurinol], in data set [2], the “decrease of theophylline clearance” value is reported as 21%, the “increase of theophylline AUC” value is listed as “up to 27%” and the “increase of theophylline half-life” value was “approximately 25%”.
